Source: US9006191B2, “Silencing of polo-like kinase expression using interfering RNA” (Protiva Biotherapeutics, Inc., priority 2007, dated 2015)
Where “and” joins values, the source holds several entries; their conditions need not be identical. Equal entries are not always repeated. Entries after “also recorded” stand apart in the source; their conditions may differ.

Assays:
[1] = SNALP particle size and polydispersity; assay type: physicochemical
PLK-1 mRNA = PLK-1 mRNA silencing in cell cultures (QuantiGene branched DNA assay); assay type: cell-based, human; settings: 0.12-30 nM SNALP, 24 h
Description: Target mRNA Quantitation: The QuantiGene® branched DNA assay (Panomics, Inc.; Fremont, Calif.) was used to quantify the reduction of target mRNA in cell cultures treated with SNALP. Cell lysates were prepared according to the manufacturer's instructions and used directly for PLK1 mRNA quantification. Relative PLK-1 mRNA levels are expressed relative to the vehicle (PBS) treated control cells. Specific probe sets used for detection of mRNA were designed to target human PLK-1 mRNA (Genbank Accession No. NM_005030). These probe sets are cross reactive with mouse PLK-1.
PLK-1 SNALP (“2:40” SNALP formulation: 2% PEG-cDMA; 40% DLinDMA; 10% DSPC; and 48% cholesterol) were tested for their ability to silence PLK-1 mRNA in HT29 cells. Cells were plated in duplicates at relatively high concentrations (˜10,000 cells/well). QuantiGene® analysis was performed at 24 hours following transfection to detect the level of mRNA down-regulation. A visual score of the transfected cells was obtained at 48 hours following transfection. Cell viability analysis was performed at 72 hours following transfection.
(§1) SNALP containing PLK1424 or PLK773 siRNA (“2:40” SNALP formulation: 2% PEG-cDMA; 40% DLinDMA; 10% DSPC; and 48% cholesterol) were tested for their effects on cell viability and silencing of PLK-1 mRNA in HT29 and LS174T human colon cancer cells. Cells were plated in triplicate at ˜10,000 cells/well. SNALP dosages were as follows: 30 nM; 10 nM; 3.3 nM; 1.1 nM; 0.37 nM; and 0.12 nM. Branched DNA mRNA assays were performed 24 hours following transfection. Cell viability assays were performed at 72 hours following transfection. SNALP containing a non-targeting (GFP) siRNA were used as a negative control. […] The effects on cell viability correlated with silencing of the target PLK-1 mRNA.

LS174T cells [2] = test: Apoptosis/Caspase 3/7 assay in LS174T cells; assay type: cell-based, human; settings: SNALP-formulated siRNA, 24-72 h
Description: This assay is based on the specific enzymatic cleavage of the Caspase 3/7 substrate (Z-DEVD)-2-Rhodamine 110 to a fluorogenic product and is used to quantify the level of apoptosis in cultured cells.
SNALP containing PLK1424 or PLK773 siRNA (“2:40” SNALP formulation: 2% PEG-cDMA; 40% DLinDMA; 10% DSPC; and 48% cholesterol) were further tested for their effects on inducing the apoptosis of LS174T cells. Cells were plated in triplicate at ˜10,000 cells/well. SNALP dosages were as follows: 30 nM; 10 nM; and 3.3 nM. Caspase 3/7 assays were performed at 24, 48, and 72 hours following transfection. SNALP containing a non-targeting (GFP) siRNA were used as a negative control.

Hep3B cells = settings: SNALP-formulated siRNA, 72 h
Description: Cell Viability Assay: Cell viability of in vitro cell cultures was assessed using the commercial reagent CellTiter-Blue® (Promega Corp.; Madison, Wis.), a resazurin dye that is reduced by metabolically active cells to the fluorogenic product resorufin. Various cancer cell lines were cultured in vitro using standard tissue culture techniques. 48-72 hours after treatment with siRNA formulations and/or chemotherapy drugs, the CellTiter-Blue® reagent was added to the culture to quantify the metabolic activity of the cells, which is a measure of cell viability.
Cell Cultures. The cell lines Hep3B, HepG2, HT29, LS174T, and Neuro2a cells were obtained from the American Type Culture Collection (ATCC; Manassas, Va.) and cultured in the recommended basal media with 10% heat inactivated FBS and 1% penicillin-streptomycin. […] For in vitro siRNA activity assays, cell lines were cultured in 96 well plates in the presence of SNALP formulated siRNA. Cell viability was assessed after 72 h using the resazurin dye CellTiter Blue (Promega Corp).

Hep3B liver tumors = test: Intrahepatic Hep3B tumor model (survival, body weight, tumor burden); assay type: in vivo
Description: SNALP containing PLK-1 siRNA (“1:57” SNALP formulation: 1.4% PEG-cDMA; 57.1% DLinDMA; 7.1% DPPC; and 34.3% cholesterol) were tested for their effects on the survival of […] mice bearing Hep3B liver tumors.
Intrahepatic tumor models. Liver tumors were established in mice by direct intrahepatic injection of Hep3B or Neuro2a tumor cells (45). Female scid/beige mice (Charles River Laboratories) and male A/J mice (Jackson Laboratories) were used as hosts for the Hep3B and Neuro2a tumors, respectively. Animals received Anafen by SC injection immediately prior to surgery. Individual mice were anaesthetized by isoflourane gas inhalation and eye lube applied to prevent excessive eye drying. While maintained under gas anaesthesia, a single 1.5 cm incision across the midline was made below the sternum and the left lateral hepatic lobe exteriorized. 1×10^6 Hep3B cells or 1×10^5 Neuro2a cells suspended in 25 μL PBS were injected slowly into the lobe at a shallow angle using a Hamilton syringe and 30G needle. A swab was then applied to the puncture wound to stop any bleeding prior to suturing. Mice were allowed to recover from anaesthesia in a sterile cage and monitored closely for 2-4 h before being returned to conventional housing.
Eight to 11 days after tumor implantation, mice were randomized into treatment groups. siRNA SNALP formulations or PBS vehicle control were administered by standard intravenous injection via the lateral tail vein, calculated on a mg siRNA/kg basis according to individual animal weights (10 mL/kg injection volume). Body weights were then monitored throughout the duration of the study as an indicator of developing tumor burden and treatment tolerability. For efficacy studies, defined humane endpoints were determined as a surrogate for survival. Assessments were made by qualified veterinary technicians based on a combination of clinical signs, weight loss, and abdominal distension to define the day of euthanization due to tumor burden.
Measurement of human PLK-1 and GAPDH mRNA in tumor tissues. Tumors were harvested directly into RNALater and stored at 4° C. until processing. 100 mg tumor tissue was homogenized in Tissue and Lysis Solution (EpiCentre Biotechnologies) containing […] proteinase K (EpiCentre) in a Fastprep tissue homogenizer followed by incubation in a 65° C. waterbath for 15 min and centrifuged to clarify lysates. mRNA analysis in FIG. 33B was performed on purified RNA isolated according the 5′-RACE-PCR protocol. Human PLK-1 and GAPDH mRNA were measured in tumor lystes by the QuantiGene bDNA assay (Panomics) as per the manufacturer's instructions (Quantigene 1.0 Manual). […] Data were expressed as mean PLK-1:GAPDH ratio+/−SD of individual animals. Tumor burden was assessed by homogenizing the complete liver from tumor bearing mice and measuring the total hGAPDH signal (RLU's) within the liver. Values were expressed as hGAPDH RLU/mg total liver.

LS174T cells [3] = test: LS174T cell viability assay; assay type: cell-based, human; settings: SNALP-formulated siRNA, 72 h
Description: as §1

[4] = system: anti-PEG-lipid IgG and IgM antibodies; test: In vivo PEG-lipid antibody induction assay; parameters: species or system mouse; settings: CD1 ICR mice, 1:57 SNALP IV at Days 0, 7, 14; plasma Days 7, 14, 21
Description: In vivo PEG-lipid antibody induction assays. Animal studies were performed to test for the induction of an antibody response to 2′OMe-modified PLK1424 siRNAs that were encapsulated in a 1:57 SNALP formulation containing the lipid conjugate PEG-cDMA. Six-week-old female CD1 ICR mice were used in this study. […] Mice were then sacrificed on Day 21. The tolerability of the treatment regime was monitored by animal appearance, behavior, and body weight. Anti-PEG-lipid IgG and IgM antibodies in plasma at Days 7, 14, and 21 were measured by ELISA.

[5] = Hep3B-nu/nu mouse model, 2 mg/kg twice weekly d11-d28

Row | Substance | mean SNALP particle size [1] | PLK-1 mRNA levels (PLK-1 mRNA; HT29 cells) | PLK-1 mRNA levels (PLK-1 mRNA; LS174T cells) | induction of apoptosis (Caspase 3/7 activity) (LS174T cells [2]) | cell viability / anti-proliferative activity (Hep3B cells) | median survival, Study (A) (Hep3B liver tumors; [5]) [days] | median survival, study (B) (Hep3B liver tumors; [5]) [days] | cell viability / inhibition of cell growth (LS174T cells [3]) | IgG / IgM antibody response against PEG-lipid (PEG-cDMA) [4] | mice with visible tumors at autopsy (Hep3B liver tumors; day 22, 1 day after fifth 2 mg/kg dose) | survival advantage (Kaplan-Meier, Log-rank) (Hep3B liver tumors; scid/beige mice, 6 × 2 mg/kg IV twice weekly, d 10 to d 28)
1 | PLK1424: siRNA to human PLK-1, SEQ ID NO:1/2 (UU overhang form 211/212) (chain 1 AGAUCACCCUCCUUAAAUA; chain 2 UAUUUAAGGAGGGUGAUCU; further chemistry not given here) | 83 nm and 72 nm | effective at reducing PLK-1 mRNA levels | effective at reducing PLK-1 mRNA levels | induced a significant amount of apoptosis in LS174T cells at all SNALP doses tested; also recorded: dose-dependent induction of apoptosis 48 h after siRNA transfection | potent activity | 45 | 42 | inhibiting cell growth; also recorded: potent activity |  |  | 
2 | PLK1424-2/A: 2′OMe-modified PLK1424 duplex, SEQ ID NO:214/215 (same SEQ IDs as PLK1424 1/3 of Table 11) (chain 1 AGANCACCCNCCUNAAANAUU; chain 2 UAUUUAANGAGGGUGANCUUU; siRNA; 2'-O-methyl modifications at selected positions, key for n not given here) |  |  |  |  |  |  |  |  | substantially less immunogenic than SNALP containing the corresponding unmodified PLK1424 siRNA sequence | 2 of 6 | significant survival advantage over control treatment
3 | PLK773: siRNA to human PLK-1, SEQ ID NO:3/4 (UU overhang form 218/219) (chain 1 AGACCUACCUCCGGAUCAA; chain 2 UUGAUCCGGAGGUAGGUCU; RNA, backbone not given here) |  | effective at reducing PLK-1 mRNA levels | effective at reducing PLK-1 mRNA levels | induced a significant amount of apoptosis in LS174T cells at all SNALP doses tested |  |  |  | inhibiting cell growth |  |  | 
